Source: PubChem BioAssay AID1963844 (Molecular Pharmacology Branch, DTP, NCI, 2024)

System: 422866-222-R5-J1-PDC complex spheroid viability
Assay: Anticancer human tumor 422866-222-R5-J1-PDC patient-derived pancreatic adenocarcinoma cell line growth inhibition [POLQ]
Settings: for IC50: curve of first compound; for viability, T/C: stronger effect = lower value
Method: Multicellular complex tumor spheroid response to Polymerase (POL) inhibitors (novobiocin, ART-558, RP6685) in combination with a variety of drugs and investigational agents in selected tumor cell lines
The POL inhibitors (novobiocin, ART-558, and RP6685) were evaluated both individually and in combination with standard of care and investigational anticancer small molecules within a complex spheroid model of solid tumors. . Complex spheroids include a stromal component modeled by human endothelial cells (HUVEC) and fibroblasts modeled by human mesenchymal stem cells (MSCs). The concentration ranges selected for each drug and investigational agent were based upon clinically achievable concentrations if the clinical Cmax of the agent was known.
Compounds. The drugs and investigational agents: novobiocin (NSC847541), ART-558 (NSC835418), RP-6685 (NSC848927), peposertib (NSC802822), ceralasertib (NSC780249), elimusertib (NSC800525), camonsertib (NSC841442), AZD-1390 (NSC803789), olaparib (NSC753686), talazoparib (NSC767125), rucaparib (NSC756644), sotorasib (NSC818433), MRTX-1133 (NSC836407), SN-38 (NSC673596), topotecan (NSC609699), epotoside (NSC141540), doxorubicin (NSC123127), gemcitabine (NSC613327), 5-fluorouracil (NSC19893), paclitaxel (NSC125973), vemurafenib (NSC761431), MSA-2 (NSC828583), SN-011 (NSC837082), adavosertib (NSC754352), prexasertib (NSC758257), carboplatin (NSC241240) and oxaliplatin (NSC266046), were obtained from the National Cancer Institute (NCI) Developmental Therapeutics Program Chemical Repository (21). The FDA-approved anticancer drug set is available from the Developmental Therapeutics Program at https://dtp.cancer.gov/organization/dscb/obtaining/. […] The stock solutions were prepared in dimethyl sulfoxide (DMSO, Sigma-Aldrich, St. Louis, MO, cat. D2650), except for the platinum compounds which were prepared in saline (Quality Biological, Gaithersburg, MD, cat. 114-055-101), at 800-fold the tested concentration and stored at -70 degrees C prior to their use. All drugs and investigational agents were tested over a range starting from a high concentration at or near the clinical Cmax and decreasing in half-log increments. If the clinical Cmax for an agent had not been determined, the highest concentration tested was 10 microM, except for SN-38, which was tested at a high concentration of 1 microM.
Cell Culture. All cells were maintained in an incubator at 37 degrees C and 5% CO2 with 95% humidity. The PDC lines were cultured according to standard operating procedures established by the NCI PDMR (https://pdmr.cancer.gov). Table 3 of the manuscript, lists the cell lines along with the number of the three cell types plated to form the mct-spheroids and media for tumor cell growth. After thawing, all PDC lines, except 997537-175-T-J1-PDC and 415267-285-R-J2-PDC, were cultured in Matrigel-coated flasks prepared with a working solution of 1X Ham's F-12 nutrient mix, without supplementation (Thermo Fisher Scientific, cat. 11765054), 100 U/mL penicillin-streptomycin (Thermo Fisher Scientific, cat. 15140122), and 2.5% Matrigel (Corning Inc., Corning, NY, cat. 354248) for the first three passages. The two PDC lines 997537-175-T-J1-PDC and 415267-285-R-J2-PDC were cultured on uncoated flasks. The 857933-349-R-J2-PDC line was cultured in 6C/Colon 1B media containing advanced DMEM/F-12 (Thermo Fisher Scientific, cat. 12634028), 10 mM HEPES (Thermo Fisher Scientific, cat. 15630080), 1X GlutaMAX supplement (Thermo Fisher Scientific, cat. 35050061), 0.1 mg/mL primocin (InvivoGen, San Diego, CA, cat. ant-pm-2), 10% defined fetal bovine serum, heat inactivated (HyClone Laboratories Inc., Logan, UT, cat. SH30070.03HI), 50% L-WRN conditioned media (ATCC, cat. CRL-3276), 1.25 mM N-Acetyl-L-cysteine (Sigma-Aldrich, cat. A9165), 10 mM nicotinamide (Sigma-Aldrich, cat. N0636), 1X B-27 supplement (Thermo Fisher Scientific, cat. 17504044), 1X N-2 supplement (Thermo Fisher Scientific, cat. […]
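Also: spheroids exposed to compounds for one week before readout.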
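For viability, T/C in this document: percent of DMSO vehicle wells luminescence so 100% = untreated viability.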

Work on `O=C(Nc1ccc(O)c(NS(=O)(=O)c2ccc(F)cc2)c1)c1ccc(-c2ccccc2)cc1` + COC1C(OC(N)=O)C(O)C(Oc2ccc3c(O)c(NC(=O)c4ccc(O)c(CC=C(C)C)c4)c(=O)oc3c2C)OC1(C)C yielded an IC50 (second compound 0.0316 µM) greater than 10 µM, an IC50 (second compound 0.1 µM) greater than 10 µM and an IC50 (second compound 0.316 µM) greater than 10 µM. For the same compound, the IC50 (second compound 1 µM) was greater than 10 µM, the IC50 (second compound 3.16 µM) was greater than 10 µM and the IC50 (second compound 10 µM) was greater than 10 µM. It also gave a viability, T/C (second compound 0.0316 µM, first compound 0.0316 µM) of 99.6%, a viability, T/C (second compound 0.0316 µM, first compound 0.1 µM) of 101% and a viability, T/C (second compound 0.0316 µM, first compound 0.316 µM) of 77.7%. For the same compound, the viability, T/C (second compound 0.0316 µM, first compound 1 µM) was 94.6%, the viability, T/C (second compound 0.0316 µM, first compound 3.16 µM) was 96.1% and the viability, T/C (second compound 0.0316 µM, first compound 10 µM) was 126%. It also gave a viability, T/C (second compound 0.1 µM, first compound 0.0316 µM) of 92.2%, a viability, T/C (second compound 0.1 µM, first compound 0.1 µM) of 87.3% and a viability, T/C (second compound 0.1 µM, first compound 0.316 µM) of 83.3%. It also gave a viability, T/C (second compound 0.1 µM, first compound 1 µM) of 95.2%, a viability, T/C (second compound 0.1 µM, first compound 3.16 µM) of 88.8% and a viability, T/C (second compound 0.1 µM, first compound 10 µM) of 133%. The viability, T/C (second compound 0.316 µM, first compound 0.0316 µM) was 92.4%, the viability, T/C (second compound 0.316 µM, first compound 0.1 µM) was 88% and the viability, T/C (second compound 0.316 µM, first compound 0.316 µM) was 84%. It also gave a viability, T/C (second compound 0.316 µM, first compound 1 µM) of 99.5%, a viability, T/C (second compound 0.316 µM, first compound 3.16 µM) of 93% and a viability, T/C (second compound 0.316 µM, first compound 10 µM) of 123%. The viability, T/C (second compound 1 µM, first compound 0.0316 µM) was 106%, the viability, T/C (second compound 1 µM, first compound 0.1 µM) was 95% and the viability, T/C (second compound 1 µM, first compound 0.316 µM) was 83.7%. It also gave a viability, T/C (second compound 1 µM, first compound 1 µM) of 84.9%, a viability, T/C (second compound 1 µM, first compound 3.16 µM) of 97.7% and a viability, T/C (second compound 1 µM, first compound 10 µM) of 125%. The viability, T/C (second compound 3.16 µM, first compound 0.0316 µM) was 93.8%, the viability, T/C (second compound 3.16 µM, first compound 0.1 µM) was 100% and the viability, T/C (second compound 3.16 µM, first compound 0.316 µM) was 103%. The viability, T/C (second compound 3.16 µM, first compound 1 µM) was 89.2%, the viability, T/C (second compound 3.16 µM, first compound 3.16 µM) was 103% and the viability, T/C (second compound 3.16 µM, first compound 10 µM) was 124%. For the same compound, the viability, T/C (second compound 10 µM, first compound 0.0316 µM) was 95.8%, the viability, T/C (second compound 10 µM, first compound 0.1 µM) was 80.9% and the viability, T/C (second compound 10 µM, first compound 0.316 µM) was 87.4%. For the same compound, the viability, T/C (second compound 10 µM, first compound 1 µM) was 85%, the viability, T/C (second compound 10 µM, first compound 3.16 µM) was 96.4% and the viability, T/C (second compound 10 µM, first compound 10 µM) was 133%.
